Measurements reported in ChEMBL document CHEMBL1201862, “PubChem BioAssay data set” (2004).
Counter-ions that a name gives are not always drawn. Active and inactive are the calls of the source.

Experiments:
[1] = biological target: T1, Delta-type opioid receptor (Homo sapiens, UniProt P41143); assay: HTS Image-Based Screen for Antagonists of the DOR Receptor. [Related pubchem assays (depositor defined):AID1777, AID1785, AID1786, AID2133]; format: functional
Mu-type opioid receptor = Mu-type opioid receptor (Homo sapiens, UniProt P35372); assay: HTS Image-Based Screen for Agonists of the MOR Receptor. [Related pubchem assays (depositor defined):AID1777, AID1785, AID1786, AID2133]; format: functional;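 note: imaging of beta-arrestin GFP recruitment into spots after receptor activation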
Sequence of Mu-type opioid receptor (P35372 whole entry): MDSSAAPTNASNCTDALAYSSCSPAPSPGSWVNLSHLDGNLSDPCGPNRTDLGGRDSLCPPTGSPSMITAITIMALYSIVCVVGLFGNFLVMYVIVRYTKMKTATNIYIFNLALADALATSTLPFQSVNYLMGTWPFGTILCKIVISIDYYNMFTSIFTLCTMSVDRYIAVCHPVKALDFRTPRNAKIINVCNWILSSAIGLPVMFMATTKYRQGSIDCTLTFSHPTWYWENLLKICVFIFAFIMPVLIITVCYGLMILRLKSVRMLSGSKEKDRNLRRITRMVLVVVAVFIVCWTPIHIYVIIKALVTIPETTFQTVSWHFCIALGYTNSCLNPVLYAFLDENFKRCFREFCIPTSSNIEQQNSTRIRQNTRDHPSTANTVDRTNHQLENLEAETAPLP

[2] = biological target: T1, Delta-type opioid receptor; assay: HTS Image-Based Screen for Agonists of the DOR Receptor. [Related pubchem assays (depositor defined):AID1777, AID1786, AID2133]; format: functional
[3] = biological target: T2, Kappa-type opioid receptor (Homo sapiens, UniProt P41145); format: functional
T2 sequence (P41145 whole entry): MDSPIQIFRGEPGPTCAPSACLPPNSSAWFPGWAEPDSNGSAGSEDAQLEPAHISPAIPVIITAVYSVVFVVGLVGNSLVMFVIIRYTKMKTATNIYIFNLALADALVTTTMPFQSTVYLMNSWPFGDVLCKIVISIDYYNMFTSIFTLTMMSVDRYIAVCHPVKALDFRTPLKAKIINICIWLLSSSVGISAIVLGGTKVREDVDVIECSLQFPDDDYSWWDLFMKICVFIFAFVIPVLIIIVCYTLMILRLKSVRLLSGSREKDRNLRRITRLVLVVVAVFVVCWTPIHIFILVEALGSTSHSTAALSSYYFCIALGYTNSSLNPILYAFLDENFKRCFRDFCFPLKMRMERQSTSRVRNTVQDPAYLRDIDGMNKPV

[4] = biological target: T2, Kappa-type opioid receptor; format: functional; remark: listed apart in the source
[5] = biological target: Eukaryotic translation initiation factor 4E (Mus musculus, UniProt P63073); assay: blockers of eIF4G binding by eIF4E – biochemical, TR-FRET, dose response (AID 855); format: functional;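 note: potency for disrupting eIF4E binding to eIF4GI seen as loss of FRET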
Sequence of Eukaryotic translation initiation factor 4E (P63073 whole entry): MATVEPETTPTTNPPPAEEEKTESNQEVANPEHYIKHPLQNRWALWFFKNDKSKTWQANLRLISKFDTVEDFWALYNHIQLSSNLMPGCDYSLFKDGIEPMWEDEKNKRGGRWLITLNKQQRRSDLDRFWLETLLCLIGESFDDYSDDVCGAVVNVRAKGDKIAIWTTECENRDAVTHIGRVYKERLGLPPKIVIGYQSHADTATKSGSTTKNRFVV

[6] = biological target: G-protein coupled receptor 35 (Homo sapiens, UniProt Q9HC97); assay: inhibition of zaprinast-stimulated GPR35 beta-arrestin translocation – imaging, U2OS, beta-arrestin-GFP, zaprinast agonist, primary screen (AID 2058); format: functional;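 note: antagonist potency meaning inhibition of agonist-induced arrestin redistribution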
Sequence of G-protein coupled receptor 35 (Q9HC97 whole entry): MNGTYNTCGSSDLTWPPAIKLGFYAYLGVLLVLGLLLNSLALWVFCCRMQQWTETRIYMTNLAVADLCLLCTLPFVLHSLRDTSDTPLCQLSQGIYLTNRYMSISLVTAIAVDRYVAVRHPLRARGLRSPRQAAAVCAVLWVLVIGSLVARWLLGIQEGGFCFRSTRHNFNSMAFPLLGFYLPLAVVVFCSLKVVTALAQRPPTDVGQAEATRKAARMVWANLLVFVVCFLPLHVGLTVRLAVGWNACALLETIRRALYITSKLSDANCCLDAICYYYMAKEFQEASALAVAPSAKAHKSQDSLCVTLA

[7] = biological target: T3, Microphthalmia-associated transcription factor (Homo sapiens, UniProt O75030); assay: reducers of TRPM1 reporter luminescence, concentration series – cell-based, SK-MEL-5, cherry-picked, set 3, MITF inhibitor project, dose response (AID 493073); format: functional;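 note: SK-MEL-5 melanoma cells with luciferase driven by the MITF target TRPM1 promoter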
T3 sequence (O75030 whole entry): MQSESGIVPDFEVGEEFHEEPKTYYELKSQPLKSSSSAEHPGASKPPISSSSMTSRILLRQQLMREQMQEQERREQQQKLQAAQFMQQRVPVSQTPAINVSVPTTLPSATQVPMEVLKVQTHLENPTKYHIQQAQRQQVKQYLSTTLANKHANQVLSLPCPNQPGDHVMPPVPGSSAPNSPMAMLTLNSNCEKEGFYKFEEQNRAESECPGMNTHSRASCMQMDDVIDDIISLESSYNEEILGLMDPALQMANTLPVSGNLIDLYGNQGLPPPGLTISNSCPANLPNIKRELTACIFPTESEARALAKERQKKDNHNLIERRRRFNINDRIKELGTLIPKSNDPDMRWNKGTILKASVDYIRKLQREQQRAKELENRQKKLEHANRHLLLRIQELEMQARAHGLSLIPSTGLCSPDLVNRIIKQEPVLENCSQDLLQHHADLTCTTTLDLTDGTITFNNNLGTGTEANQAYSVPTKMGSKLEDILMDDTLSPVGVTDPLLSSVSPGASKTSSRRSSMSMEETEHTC

[8] = biological target: T4, DNA repair protein RAD52 homolog (Homo sapiens, UniProt P43351); format: functional, biochemical
T4 sequence (P43351 whole entry): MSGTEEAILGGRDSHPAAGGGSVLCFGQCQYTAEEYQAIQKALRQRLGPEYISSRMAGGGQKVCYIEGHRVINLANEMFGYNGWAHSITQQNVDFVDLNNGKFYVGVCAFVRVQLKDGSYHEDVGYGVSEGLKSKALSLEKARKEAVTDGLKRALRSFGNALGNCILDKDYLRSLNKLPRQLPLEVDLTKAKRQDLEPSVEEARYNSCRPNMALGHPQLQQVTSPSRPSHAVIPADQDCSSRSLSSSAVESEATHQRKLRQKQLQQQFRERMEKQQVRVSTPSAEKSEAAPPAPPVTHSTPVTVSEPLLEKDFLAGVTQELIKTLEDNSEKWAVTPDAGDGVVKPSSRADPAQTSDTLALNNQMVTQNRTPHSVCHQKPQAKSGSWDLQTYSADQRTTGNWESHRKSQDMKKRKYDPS

[9] = Luminescence Cell Based Dose Confirmation HTS to Identify Activators of 5'UTR Stem-Loop Driven Alpha-Synuclein mRNA Translation in H4 Neuroglioblastoma Cells. [Related pubchem assays (depositor defined):AID1813, AID1829]; format: functional; details: Homo sapiens
[10] = biological target: T5, Small ubiquitin-related modifier 1 (Homo sapiens, UniProt P63165); assay: SUMO1 protein interaction blockers, potency – biochemical, fluorescence polarization, uHTS hits, dose response (AID 624382); format: functional; details: read-out: IC50_Mean
T5 sequence (P63165 whole entry): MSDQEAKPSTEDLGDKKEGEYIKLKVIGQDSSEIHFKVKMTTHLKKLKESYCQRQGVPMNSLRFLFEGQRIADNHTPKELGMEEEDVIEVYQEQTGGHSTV

[11] = biological target: T5, Small ubiquitin-related modifier 1; assay: SUMO1 protein-protein binding blockers, potency – biochemical, FRET, dose response (AID 624383); format: functional; details: read-out: IC50_Mean
[12] = luciferase reporter signal suppression in cells – H4 neuroglioma cells, luminescence, dose response (AID 1990); format: functional, cell-based
[13] = Luminescence Cell-Based Dose Response HTS to Identify Inhibitors of 5'UTR Stem-Loop Driven Prion Protein mRNA Translation in H4 Neuroglioblastoma Cells. [Related pubchem assays: 1827 (Project Summary), 1813 (Primary HTS)]; format: functional
[14] = alpha-synuclein stem-loop luciferase translation blockers – H4 neuroglioma cells, luminescence, confirmation (AID 1988); format: functional, cell-based
[15] = biological target: G-protein coupled receptor 55 (Homo sapiens, UniProt Q9Y2T6); assay: inhibition of LPI-stimulated GPR55 beta-arrestin translocation – imaging, U2OS, beta-arrestin-GFP, LPI agonist, primary screen (AID 2013); format: functional;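 note: antagonist potency measured as reduced agonist-driven arrestin aggregation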
Sequence of G-protein coupled receptor 55 (Q9Y2T6 whole entry): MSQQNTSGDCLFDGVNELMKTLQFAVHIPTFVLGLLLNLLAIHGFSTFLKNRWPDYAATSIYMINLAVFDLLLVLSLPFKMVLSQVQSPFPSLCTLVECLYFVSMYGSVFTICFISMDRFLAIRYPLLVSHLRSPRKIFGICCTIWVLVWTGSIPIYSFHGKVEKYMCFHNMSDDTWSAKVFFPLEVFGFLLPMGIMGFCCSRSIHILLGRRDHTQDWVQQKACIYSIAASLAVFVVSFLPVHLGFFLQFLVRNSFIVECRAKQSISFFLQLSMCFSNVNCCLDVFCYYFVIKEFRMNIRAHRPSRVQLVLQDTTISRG

[16] = HPDE-C7 pancreatic duct cell viability loss – fluorescence, HTS (AID 430); format: functional, cell-based; details: Homo sapiens
[17] = Trypanosoma cruzi growth suppression in host cells – NIH3T3 host cells, beta-gal luminescence, confirmation (AID 2044); format: functional, cell-based;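 note: intracellular parasites grown in NIH/3T3 mouse fibroblasts as host cells; luminescent beta-galactosidase reporter signal from transgenic T. cruzi replicating inside host cells; inhibitors lower the luminescence signal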
[18] = viability loss of HPDE-C7K cells – cell-based, fluorescence, HTS, primary screen (AID 431); format: functional; details: Homo sapiens
[19] = NIH3T3 cell viability loss – ATP luminescence, mouse fibroblasts, counter-screen, dose response (AID 2010); format: functional, cell-based;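 note: cells exposed to compound for about 90 hours before reading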
Saccharomyces cerevisiae = assay: S. cerevisiae Caspase-1/ASC signal blockers IC50, NALP1 inhibitor project selectivity test (AID 488863); format: functional, organism-based
[20] = biological target: T6, Ubiquitin-conjugating enzyme E2 N (Homo sapiens, UniProt P61088); format: functional;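 note: Dose-response confirmation in a TR-FRET assay detecting UBC13-driven polyubiquitin chain formation, inhibition measured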
T6 sequence (P61088 whole entry): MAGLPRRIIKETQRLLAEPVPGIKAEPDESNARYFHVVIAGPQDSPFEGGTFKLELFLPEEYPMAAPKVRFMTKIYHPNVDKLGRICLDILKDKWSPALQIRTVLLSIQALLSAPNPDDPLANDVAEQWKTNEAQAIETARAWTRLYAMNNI

[21] = biological target: NACHT, LRR and PYD domains-containing protein 1 (Homo sapiens, UniProt Q9C000); assay: NALP1 inhibitors in yeast, dose response, luminescent (AID 488860); format: functional
Sequence of NACHT, LRR and PYD domains-containing protein 1 (Q9C000 1-1212 limits assumed): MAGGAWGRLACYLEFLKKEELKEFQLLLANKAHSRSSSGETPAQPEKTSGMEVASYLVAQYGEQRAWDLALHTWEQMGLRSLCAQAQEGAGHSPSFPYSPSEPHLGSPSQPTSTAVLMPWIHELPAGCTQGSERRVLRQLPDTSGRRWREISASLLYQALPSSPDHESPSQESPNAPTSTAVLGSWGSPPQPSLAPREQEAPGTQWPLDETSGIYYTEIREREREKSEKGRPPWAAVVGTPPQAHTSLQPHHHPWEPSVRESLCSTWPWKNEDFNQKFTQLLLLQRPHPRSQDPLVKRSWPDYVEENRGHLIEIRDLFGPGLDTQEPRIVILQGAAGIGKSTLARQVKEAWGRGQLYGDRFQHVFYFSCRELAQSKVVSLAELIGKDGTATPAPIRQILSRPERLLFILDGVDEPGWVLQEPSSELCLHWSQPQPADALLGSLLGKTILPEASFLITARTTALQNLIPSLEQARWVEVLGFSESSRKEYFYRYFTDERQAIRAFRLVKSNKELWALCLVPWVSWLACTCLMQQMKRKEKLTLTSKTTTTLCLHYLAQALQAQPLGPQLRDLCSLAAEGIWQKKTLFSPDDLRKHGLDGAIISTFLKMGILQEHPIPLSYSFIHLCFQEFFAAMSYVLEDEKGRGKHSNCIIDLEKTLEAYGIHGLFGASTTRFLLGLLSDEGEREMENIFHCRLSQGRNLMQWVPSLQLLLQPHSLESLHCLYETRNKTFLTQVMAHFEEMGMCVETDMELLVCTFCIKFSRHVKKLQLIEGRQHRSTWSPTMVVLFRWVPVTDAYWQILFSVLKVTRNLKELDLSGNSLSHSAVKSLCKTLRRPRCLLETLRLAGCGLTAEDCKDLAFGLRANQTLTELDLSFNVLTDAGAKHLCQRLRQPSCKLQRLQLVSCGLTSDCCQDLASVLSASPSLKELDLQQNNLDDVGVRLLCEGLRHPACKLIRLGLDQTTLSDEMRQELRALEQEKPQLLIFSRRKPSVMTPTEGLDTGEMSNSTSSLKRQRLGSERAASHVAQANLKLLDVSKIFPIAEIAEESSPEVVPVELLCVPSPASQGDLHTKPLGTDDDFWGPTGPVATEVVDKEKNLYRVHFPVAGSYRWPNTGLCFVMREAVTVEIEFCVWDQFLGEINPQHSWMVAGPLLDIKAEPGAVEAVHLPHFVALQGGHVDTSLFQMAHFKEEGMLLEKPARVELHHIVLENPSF
Sequence of NACHT, LRR and PYD domains-containing protein 1 (Q9C000 1213-1473 limits assumed): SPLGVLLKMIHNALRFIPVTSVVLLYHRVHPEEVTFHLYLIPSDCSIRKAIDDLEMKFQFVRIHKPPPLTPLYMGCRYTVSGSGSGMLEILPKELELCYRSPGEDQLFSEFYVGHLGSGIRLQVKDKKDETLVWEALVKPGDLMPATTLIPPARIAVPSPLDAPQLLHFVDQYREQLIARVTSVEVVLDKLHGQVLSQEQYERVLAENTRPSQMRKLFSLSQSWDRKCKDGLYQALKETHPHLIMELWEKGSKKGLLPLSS

INS1 = assay: INS-1E survival protection against cytokine death – cell-based, luminescence, retest, dose response (AID 449756); format: functional; details: Rattus norvegicus;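 note: cell death triggered by IL-1 beta plus TNF-alpha plus IFN-gamma mixture; protective hits raise ATP signal compared with cytokine alone wells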
[22] = CellTiter-Glo luminescence survival assay, SW480 colon tumor line, concentration-response curve, half-maximal inhibitory concentration (AID 1117338); format: functional
[23] = RKO cell viability reduction, dose response, CellTiter-Glo luminescence (AID 1117322); format: functional
[24] = cytotoxicity toward HCT116 cells – cell-based, CellTiter-Glo luminescence, IC50, dose response (AID 1117332); format: functional; details: HCT-116
[25] = SNU-C1 cell viability reduction, dose response, CellTiter-Glo luminescence (AID 1117323); format: functional, cell-based
[26] = cytotoxicity toward Colo320 cells – cell-based, CellTiter-Glo luminescence, IC50, dose response (AID 1117334); format: functional; details: COLO 320
[27] = cytotoxicity toward HT-29 cells – cell-based, CellTiter-Glo luminescence, IC50, dose response (AID 1117330); format: functional
[28] = Reduced DLD-1 viability, concentration-response, CellTiter-Glo luminescence (AID 1117352); format: functional
[29] = HCT116 cell viability decrease, GSK3B pretreatment – CellTiter-Glo, IC50, dose response (AID 1117339); format: functional; details: HCT-116

T1 sequence (P41143 whole entry): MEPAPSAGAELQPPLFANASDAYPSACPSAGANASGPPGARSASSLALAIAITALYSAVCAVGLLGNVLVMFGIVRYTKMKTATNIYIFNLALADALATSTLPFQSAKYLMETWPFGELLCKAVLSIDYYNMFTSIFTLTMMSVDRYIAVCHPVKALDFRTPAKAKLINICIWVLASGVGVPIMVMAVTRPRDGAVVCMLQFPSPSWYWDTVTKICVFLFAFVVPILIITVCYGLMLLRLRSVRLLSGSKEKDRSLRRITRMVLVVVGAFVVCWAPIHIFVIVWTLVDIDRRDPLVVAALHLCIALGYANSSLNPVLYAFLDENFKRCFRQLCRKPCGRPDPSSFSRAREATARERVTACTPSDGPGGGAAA

With Cc1ccc(C)c(N2CCN(C(=O)C(Cc3ccccc3)n3cccc3)CC2)c1 (stereo not drawn) the IC50 [1] was > 32 µM (inactive), the EC50 (Mu-type opioid receptor) was > 32 µM (inactive) and the EC50 [2] was > 32 µM (inactive). The EC50 [3] was 4.27 µM, the EC50 [4] was 10.5 µM and the IC50 [5] was > 64 µM (inactive).
With CN(C)CCCNC(=O)/C(=C\c1ccc(-c2ccc(Br)cc2)o1)NC(=O)c1ccccc1 the IC50 [6] was > 32 µM (inactive), the AC50 [7] was 7.51 µM (active) and the AC50 [8] was 15.6 µM (active).
In the case of COc1ccc(Cl)cc1Nc1nnc(-c2ccncc2)s1, the EC50 [9] is reported as 73.5 µM (active), the IC50 [10] is reported as > 66.6 µM (inactive) and the IC50 [11] is reported as 4.83 µM (active).
In the case of C1CCC(C(CC2CCCCN2)C2CCCCC2)CC1 (stereo not drawn) [PERHEXILINE MALEATE], the EC50 [12] is reported as > 120 µM (not active), the EC50 [13] is reported as > 120 µM (not active) and the EC50 [14] is reported as 8.95 µM (active). The IC50 [15] was 3.19 µM (active), the EC50 [16] was 11.7 µM (active) and the EC50 [17] was 3.13 µM (active). The EC50 [18] was 10.8 µM (active), the EC50 [19] was 14.2 µM (active) and the IC50 (Saccharomyces cerevisiae) was 15.9 µM (active). The IC50 [20] was > 20 µM (inactive), the IC50 [21] was 12.9 µM (active) and the AC50 [7] was 18.8 µM (active). For the same molecule, the AC50 (INS1) was 6.42 µM (active), the IC50 [22] was 5.76 µM (inactive) and the IC50 [23] was 7.85 µM (inactive). The IC50 [24] was > 20 µM (inactive), the IC50 [25] was 2.48 µM (active) and the IC50 [26] was 8.86 µM (inactive). For the same molecule, the IC50 [27] was 6.87 µM (inactive), the IC50 [28] was > 20 µM (inactive) and the IC50 [29] was 7.42 µM (inactive).
